Key:
[1] = target: T1, TYK2-JH2 (aa 575-869, in-house) protein (Homo sapiens, UniProt P29597); assay: TYK2-JH2 biochemical assay (HTRF probe displacement); format: binding; conditions: Biochemical assay; read-out: TYK2-JH2 IC50
T1 construct: TYK2-JH2 (aa 575-869, in-house) protein; made in house
In short: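 HTRF probe-displacement format: compound dilutions (10 points, 5-fold, from 500 uM in DMSO at 500×) were combined with 0.2 nM TYK2-JH2 protein for 0.5 h at room temperature in HEPES pH 7.5 buffer with MgCl2, BSA, DTT and Brij-35. Percent inhibition came from the 615/665 nm fluorescence ratio, fitted to a four-parameter logistic for IC50.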

[2] = test system: JAK2, TYK2/p-STAT4 (Tyr693) activated by IL-12 in NK-92 cell line; assay: IL-12-JAK2, TYK2/p-STAT4 (Tyr693) inhibition IC50 cellular assay; format: cell-based; conditions: for Selectivity fold (TYK2/JAK2): Cellular assay, pSTAT5/GM-CSF IC50 vs pSTAT4/IL-12 IC50; for IC50: NK92, Cellular assay, read-out: pSTAT4/IL-12 IC50
Description: Assay C: IL-12-JAK2, TYK2/p-STAT4 (Tyr693) Inhibition IC50 Cellular Assay
To evaluate the inhibition effect of compounds disclosed herein on JAK2, TYK2/p-STAT4 (Tyr693) activated by IL-12 in NK-92 cell line, NK-92 cells were collected and washed 3 times by DPBS and resuspended in MEM-α (GIBCO, Cat #12561056) with 10% FBS (Gibco, Cat #10099, Lot #1891605), without IL-2 (R&D systems, Cat #202-IL), starved overnight. Cells were collected and resuspended in 1640 medium (phenol red free, Gibco, Cat #11835-030) with 0.1% BSA, and 12.5 μl/5×10^4/well cell suspension were seeded to the 96-well plate (Corning, Cat #3799). Then cells were treated with compounds diluted in 0.2% DMSO 1640 medium, at 37° C., 1 h. Dilution is done according to the following protocol: (1) make 500× compounds solution in DMSO from 5 mM by 4-fold dilution, total 8 doses were included; (3) make 2× compounds solution in assay medium by transferring 0.5 μl serial 500× stock solution into 125 μl assay medium; (4) 15 μl of 2× serial solution is added to cells and incubate at 37° C. for 1 h, the final compound conc. is 10000, 2500, 625, 156.25, 39, 9.8, 2.4 and 0.61 nM, respectively. After 1 h, cells were treated with 2.5 μl medium containing IL-12 at 37° C. (R&D systems, Cat #219-IL-005, final conc. 40 ng/ml), 30 min. Following cells were lysed with 7.5 μl lysis buffer at RT, shaking on shaker for 1 h. 10 μL of cell lysate were transferred to a PE 384-well Proxiplate detection plate, and 5 μL of pre-mixed Alphascreen beads were added to each well. Covered the plate with a plate sealer, span 1000 rpm for 1 min, mix, Incubated overnight at room temperature. Read on BMG PheraStar with Alphascreen protocol. IC 50 values were calculated by fitting dependent data to the four-parameter logistic model using dotmatics software. The assay was performed by using AlphaLISA SureFire Ultra p-STAT4 (Tyr693) Assay Kit—High Volume (PE, Cat #ALSU-PST4-A-HV).

pSTAT5/GM-CSF = pSTAT5/GM-CSF cellular assay (JAK2 selectivity); format: cell-based; conditions: for Selectivity fold (TYK2/JAK2): pSTAT5/GM-CSF IC50 over pSTAT4/IL-12 IC50

T1 sequence (P29597 575-869): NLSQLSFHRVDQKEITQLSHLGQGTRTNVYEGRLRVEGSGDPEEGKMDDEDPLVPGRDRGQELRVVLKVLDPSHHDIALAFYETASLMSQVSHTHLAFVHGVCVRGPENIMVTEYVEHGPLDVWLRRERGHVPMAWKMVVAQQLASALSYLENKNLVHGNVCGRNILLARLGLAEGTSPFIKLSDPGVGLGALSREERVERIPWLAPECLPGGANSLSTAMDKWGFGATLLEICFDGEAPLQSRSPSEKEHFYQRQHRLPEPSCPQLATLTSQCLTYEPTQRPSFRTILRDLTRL

SMILES	IC50 [1] [nM]	Selectivity fold (TYK2/JAK2) [2] [fold]	IC50 [2] [nM]	IC50 (pSTAT5/GM-CSF) [nM]	Selectivity fold (TYK2/JAK2) (pSTAT5/GM-CSF) [fold]
CC(=O)Nc1cc(Nc2cc(OC(C)C)cc(S(C)(=O)=O)n2)c(-c2ccc(N3CC4CC3CO4)cn2)cn1 (stereo not drawn) [Example B16, N-(5-(2-oxa-5-azabicyclo[2.2.1]heptan-5-yl)-4′-((4-isopropoxy-6-(methylsulfonyl)pyridin-2-yl)amino)-[2,3′-bipyridin]-6′-yl)acetamide]	0.03	8366	0.513	4290	
CC(=O)Nc1cc(Nc2cncc(S(C)(=O)=O)n2)c(-c2ccc(N3C[C@@H](C)O[C@@H](C)C3)cn2)cn1 [Example C22, N-(5-(cis-2,6-dimethylmorpholino)-4′-((6-(methylsulfonyl)pyrazin-2-yl)amino)-[2,3′-bipyridin]-6′-yl)acetamide]	0.023	>21008	0.476	> 10000	
CC(=O)Nc1cc(Nc2cc(OCC3CC3)cc(S(C)(=O)=O)n2)c(-c2ccc(C(C)(C)O)cn2)cn1 [Example H30, N-(4′-((4-(cyclopropylmethoxy)-6-(methylsulfonyl)pyridin-2-yl)amino)-5-(2-hydroxypropan-2-yl)-[2,3′-bipyridin]-6′-yl)acetamide]	0.023	>10288	0.972	> 10000	
COCc1cc(Nc2cc(NC(C)=O)ncc2-c2ccc(C(C)(C)O)cn2)cc(S(C)(=O)=O)c1 [Example H16, N-(5-(2-hydroxypropan-2-yl)-4′-((3-(methoxymethyl)-5-(methylsulfonyl)phenyl)amino)-[2,3′-bipyridin]-6′-yl)acetamide]	0.028	>1331	7.51	> 10000	
COCCOc1ccc(-c2cnc(NC(C)=O)cc2Nc2cc(OCCOC)cc(S(C)(=O)=O)n2)nc1 [Example D8, N-(5-(2-methoxyethoxy)-4′-((4-(2-methoxyethoxy)-6-(methylsulfonyl)pyridin-2-yl)amino)-[2,3′-bipyridin]-6′-yl)acetamide]	0.036	>22573	0.443	> 10000	
CC(=O)Nc1cc(Nc2cc(OC3CC3)cc(S(C)(=O)=O)c2)c(-c2ccc(C(C)(C)O)cn2)cn1 [Example H23, N-(4′-((3-cyclopropoxy-5-(methylsulfonyl)phenyl)amino)-5-(2-hydroxypropan-2-yl)-[2,3′-bipyridin]-6′-yl)acetamide]	0.034	>1754	5.7	> 10000	
CCn1ccc(-c2cnc(NC(C)=O)cc2Nc2cc(C)cc(S(C)(=O)=O)c2)n1 [Example M11, N-(5-(1-ethyl-1H-pyrazol-3-yl)-4-((3-methyl-5-(methylsulfonyl)phenyl)amino)pyridin-2-yl)acetamide]	0.034		9.03	> 10000	>1107
CC(=O)Nc1cc(Nc2cc(OCC3CC3)cc(S(C)(=O)=O)c2)c(-c2ccc(C(C)(C)O)cn2)cn1 [Example H22, N-(4′-((3-(cyclopropylmethoxy)-5-(methylsulfonyl)phenyl)amino)-5-(2-hydroxypropan-2-yl)-[2,3′-bipyridin]-6′-yl)acetamide]	0.038	>3623	2.76	> 10000	
CC(=O)Nc1cc(Nc2cc(OCC3(C)COC3)cc(S(C)(=O)=O)n2)c(-c2ccc3c(n2)OCC(C)(C)O3)cn1 [Example Q98, N-(5-(2,2-dimethyl-2,3-dihydro-[1,4]dioxino[2,3-b]pyridin-6-yl)-4-((4-((3-methyloxetan-3-yl)methoxy)-6-(methylsulfonyl)pyridin-2-yl)amino)pyridin-2-yl)acetamide]	0.026		1.15	> 10000	>8695
CC(=O)Nc1cc(Nc2cc(OCCO)cc(S(C)(=O)=O)n2)c(-c2ccc(C(C)(C)O)cn2)cn1 [Example H8, N-(4′-((4-(2-hydroxyethoxy)-6-(methylsulfonyl)pyridin-2-yl)amino)-5-(2-hydroxypropan-2-yl)-[2,3′-bipyridin]-6′-yl)acetamide]	0.041	>461	21.7	> 10000	
CC(=O)Nc1cc(Nc2cc(OC3CCOC3)cc(S(C)(=O)=O)n2)c(-c2ccn(C)n2)cn1 (stereo not drawn) [Example J46, N-(5-(1-methyl-1H-pyrazol-3-yl)-4-((6-(methylsulfonyl)-4-((tetrahydrofuran-3-yl)oxy)pyridin-2-yl)amino)pyridin-2-yl)acetamide]	0.033		2.35	> 10000	>4255
COCCOc1cc(Nc2cc(NC(C)=O)ncc2-c2cc3c(cn2)OCCO3)nc(S(C)(=O)=O)c1 [Example Q19, N-(5-(2,3-dihydro-[1,4]dioxino[2,3-c]pyridin-7-yl)-4-((4-(2-methoxyethoxy)-6-(methylsulfonyl)pyridin-2-yl)amino)pyridin-2-yl)acetamide]	0.025		3.02	> 10000	>3311
CC(=O)Nc1cc(Nc2cccc(S(C)(=O)=O)n2)c(-c2ccn(C)n2)cn1 [Example J11, N-(5-(1-methyl-1H-pyrazol-3-yl)-4-((6-(methylsulfonyl)pyridin-2-yl)amino)pyridin-2-yl)actamide]	0.017		0.275	6420	23327
COCCOc1cc(Nc2cc(NC(C)=O)ncc2-c2ccc(COC)cn2)nc(S(C)(=O)=O)c1 [Example E5, N-(4′-((4-(2-methoxyethoxy)-6-(methylsulfonyl)pyridin-2-yl)amino)-5-(methoxymethyl)-[2,3′-bipyridin]-6′-yl)acetamide]	0.022	>19960	0.501	> 10000	
COCC1CCN(c2cc(Nc3cc(NC(C)=O)ncc3-c3ccc4c(n3)OCC(C)(C)O4)nc(S(C)(=O)=O)c2)C1 (stereo not drawn) [Example Q73, N-(5-(2,2-dimethyl-2,3-dihydro-[1,4]dioxino[2,3-b]pyridin-6-yl)-4-((4-(3-(methoxymethyl)pyrrolidin-1-yl)-6-(methylsulfonyl)pyridin-2-yl)amino)pyridin-2-yl)acetamide]	0.025		2.84	2350	828
CC[C@H](C)Oc1cc(Nc2cc(NC(C)=O)ncc2-c2ccn(C)n2)nc(S(C)(=O)=O)c1 [Example J60, (S)-N-(4-((4-(sec-butoxy)-6-(methylsulfonyl)pyridin-2-yl)amino)-5-(1-methyl-1H-pyrazol-3-yl)pyridin-2-yl)acetamide]	0.021		0.797	> 10000	>12547
CC(=O)Nc1cc(Nc2cc(C#N)cc(S(C)(=O)=O)n2)c(-c2ccc(C(C)(C)O)cn2)cn1 [Example H14, N-(4′-((4-cyano-6-(methylsulfonyl)pyridin-2-yl)amino)-5-(2-hydroxypropan-2-yl)-[2,3′-bipyridin]-6′-yl)acetamide]	0.034	>13755	0.727	> 10000	
CC(=O)Nc1cc(Nc2cc(OC(F)F)cc(S(C)(=O)=O)n2)c(-c2ccn(C)n2)cn1 [Example J58, N-(4-((4-(difluoromethoxy)-6-(methylsulfonyl)pyridin-2-yl)amino)-5-(1-methyl-1H-pyrazol-3-yl)pyridin-2-yl)acetamide]	0.025		0.497	> 10000	>20120

Reference: patent US20240043435A1, “TYK-2 INHIBITOR” (BEIGENE, LTD., priority 2020, published 2024)
